# In patent US20240390330A1, “ALPHA-2-ADRENERGIC RECEPTOR AGONISTS FOR REDUCING REDNESS AND INCREASING WHITENESS IN EYES AND OTHER OPHTHALMIC PURPOSES” (Allergan, Inc., priority 2020, published 2024):
# What was measured:
# pupil size = details: brimonidine tartrate ophthalmic solution 0.2%, presbyopic patients, different lighting conditions (McDonald II et al.); cited from earlier work
# pupil diameter = experiment: In vivo rabbit miosis model; design: species or system Dutch Belted rabbits; details: for miotic efficacy compared with brimonidine: single topical dose, low-light conditions, FIG. 4 to FIG. 7
# Method: Female Dutch Belted rabbits (Covance, Princeton, New Jersey) weighing between 2-4 kg were used for these studies. […] For topical dosing, eye drops (volume=35 μl) were instilled into the lower conjunctival sac of the test eye.
# Pupil diameter was measured in both the treated and untreated eye with an Optistick to the nearest 0.5 mm. […]
# [1] = Method: Aliquots of the PBS only curve were quenched at time zero to be used as stability controls and calibration standards. Following centrifugation, samples were analyzed by LC-MS/MS bioanalysis. Back-calculated concentrations using the assay PBS curve were used for binding and stability calculations.
# eye redness = experiment: Treatment of red eye (patient cases); format: in vivo, human; details: person
# From the text: A person complains about eye redness caused by seasonal allergies. A physician identifies the patient as having an OSH score of +2, and instructs them to administer to both of their eyes a composition comprising a compound of Formula I once or twice a day. Within the first day of administering the compound of Formula I, the patient reports decreased eye redness despite having on-going seasonal allergies, and their physician identifies the patient as having an OSH score of +0.5.
# A person without any underlying health problems notices their eyes are red, making them appear tired at work. They administer to both of their eyes a composition comprising a compound of Formula I in order to increase the whiteness of their eyes for cosmetic reasons.
# A person complains to their doctor that they suffer from red eyes due to minor eye irritations. The doctor prescribes a composition comprising a compound of Formula I and instructs them to administer the composition once or twice a day. The doctor also tells the person that many other marketed compositions for reducing eye redness are associated with side effects such as rebound hyperemia, dependency, and/or tachyphylaxis and that the person should report any such side effects.
# Upon recommendation from a friend, they ask their doctor about possibly switching to a composition comprising the compound of Formula I since their friend told them that it works faster than brimonidine.
# ocular hyperemia = experiment: Reducing eye redness in rabbits (naive and povidone iodine induced hyperemia model); format: in vivo, New Zealand White rabbits
# Method: In this study, Applicant evaluated the compound of Formula I on ocular hyperemia (i.e., eye redness).
# The modified Hackett-McDonald Scoring scale (Table 1) was used to assess hyperemia, discomfort, conjunctival swelling and discharge. Ocular imaging was conducted via a Haag-Streit B slit lamp. Effects of these compounds were first evaluated in naïve animals following baseline measurements and then assessed in a povidone iodine induced hyperemia model.
# Animals: This study was conducted in female New Zealand White rabbits (Covance) weighing approximately 2-4 kg upon arrival.
# This effect can be utilized as a transient hyperemia model to evaluate for potential blanching of blood vessels and rapid reduction of hyperemia. The ocular surface was anesthetized with drops of 0.5% proparacaine. The eye was then irrigated with 5% povidone iodine ophthalmic solution and left on the ocular surface for at least 2 minutes to ensure the solution completely covers the eye. The periocular region was also wiped with povidone solution. Following 2 minutes post-irrigation, the eye was rinsed with sterile saline until the rinsed solution runs clear. Hyperemia at baseline and post ocular topical treatment was assessed via the modified Hackett-McDonald Scoring Scale shown in Table 1 above.
# Ocular imaging: A Haag-Streit BP 900 slitlamp was used to evaluate the anterior segment of the eye (e.g., corneal integrity and cells in the aqueous humor). Pupils were dilated by applying drops of 1% cyclopentolate and 10% phenylephrine to the ocular surface. Ocular imaging was conducted in awake and/or anesthetized animals (7.5-10 mg/kg Ketamine/1-10 mg/kg Xylazine).
# [2] = after 6 hours, 0.1% w:v, FIG. 7
smiles,measurement,setting,value
"Brc1c(NC2=NCCN2)ccc2nccnc12 [Compound 4, brimonidine, reference compound]",average pupil size,pupil size,3.4 mm
same,animals with greater than 2.5 mm reduction in pupil size from baseline,"pupil diameter; a half hour after dosing, 0.1% w:v, FIG. 7",much less than half
same,animals with greater than 2.5 mm reduction in pupil size from baseline,pupil diameter; [2],virtually none
same,melanin binding (in words),[1],much more significant binding
same,onset of eye redness reduction,eye redness,takes effect in less than a minute
"CCc1c(N=C2NCCN2)ccc2[nH]cnc12 [Compound 2, reference compound]",miotic efficacy compared with brimonidine,pupil diameter,much less than brimonidine
Cc1c(N=C2NCCN2)ccc2[nH]cnc12 [Compound 1],hyperemia reduction on digital redness scale compared with LUMIFY,"ocular hyperemia; 0.03% composition, FIG. 3",performed better than LUMIFY®
same,time post treatment of significant reduction in hyperemia,"ocular hyperemia; 0.03% composition, FIG. 3",≤ 1 min
same,efficacy on ocular hyperemia compared with LUMIFY,"ocular hyperemia; 0.03% composition, single eye drop (~35 μl), FIG. 1 and FIG. 2",significantly greater efficacy on ocular hyperemia than LUMIFY®
same,reduction in the Modified Hackett-McDonald Score compared with LUMIFY,"ocular hyperemia; score including hyperemia, discomfort, conjunctival swelling and discharge",greater reduction in the Modified Hackett-McDonal Score
same,responder analysis of rabbits with >2.5 mm pupil change,"pupil diameter; 0.1% w:v, n=6, scotopic condition (<10 lux), FIG. 7",more efficacious than brimonidine
same,magnitude of pupil size reduction compared with brimonidine,pupil diameter; FIG. 7 and FIGS. 5 and 6,greater magnitude of pupil size reduction and therapeutic activity when compared to brimonidine
same,pupil constriction over 9 hours,pupil diameter; FIG. 9,significant pupil constriction even at 9 hours after dosing
same,effect on pupil constriction compared with Compound 3,pupil diameter; FIG. 10,greater effect on pupil constriction when compared to Compound 3
same,dose miotic response,"pupil diameter; Scotopic condition (<10 lux), FIG. 6",very potent dose miotic response
same,animals with greater than 2.5 mm reduction in pupil size from baseline,pupil diameter; [2],more than half
same,miotic effect compared with other alpha adrenergic receptor agonists including brimonidine,"pupil diameter; rabbit, in vivo",best miotic effect
same,miotic action (peak pupil constriction and duration of action),"pupil diameter; room lighting conditions, FIG. 8",greater miotic action than brimonidine
same,animals with greater than 2.5 mm reduction in pupil size from baseline,"pupil diameter; two hours after dosing, 0.1% w:v, FIG. 7",virtually all animals
same,melanin binding (in words),[1],no significant melanin binding
same,onset of eye redness reduction,eye redness,more effective in reducing eye redness in quite a bit less than a minute and faster than the brimonidine composition
same,whiteness of the eyes,"eye redness; cosmetic use, both eyes",noticeably whiter
same,eye redness,"eye redness; minor eye irritations, once or twice a day, a few weeks",no longer as red as they used to be
same,"rebound hyperemia, dependency, tachyphylaxis","eye redness; once or twice a day, a few weeks","has not observed any of the rebound hyperemia, dependency, or tachyphylaxis"
same,OSH score,"eye redness; seasonal allergies, baseline +2, within the first day, scale of Table 2",+0.5
"Brc1c(N=C2NCCN2)ccc2[nH]cnc12 [Compound 3, reference compound]",miotic efficacy compared with brimonidine,pupil diameter,much less than brimonidine
